Read-outs that look alike come from different tables or passages of the source. Marks after values point to notes of the source that are not given here.
Key:
CrFK cells = experiment: Cellular uptake study by fluorescence microscopy; type: cell-based, feline; details: 20 μM, examined at 1, 3 and 6 h
Protocol: The cellular uptake of curcumin and the Cur-CS nanoparticles by CrFK cells was examined using the fluorescence method. […] The plates were incubated at 37°C in an incubator with 5% CO2 for 24 h. […] At these intervals, the cells were rinsed three times with PBS. […] The dried coverslips were mounted on a glass slide, and images were captured by an Olympus IX81 inverted fluorescence microscope (Olympus, Japan) under a 535–600 nm filter.

FIPV strain WSU 79-1146 = experiment: Cytopathic effect inhibition assay (time of addition, MTT); type: cell-based, feline infectious peritonitis virus
Protocol: The cytopathic effect (CPE) inhibition assay with slight modifications was used as previously described. […] In pretreatment, the compounds were included in the cell culture medium for 8 h and were removed prior to virus infection. In cotreatment, the compounds were mixed with virus in the medium, added simultaneously to the cells, and left on the cells throughout. For posttreatment, the compounds were added to the cells 2 h postinfection (hpi) and remained throughout the time of infection. […] After incubation at 37°C for 48 and 72 h, the cell viability was determined by MTT.
The percentage of protection was calculated based on the OD using the following formula: (3) Percentage of protection %=OD570 T−OD570 V/OD570 C−OD570 V×100, where T is the treated sample, V is the virus-infected control, and C is the negative control.
The median effective concentration (EC50) is the concentration of compound required to achieve 50% protection against virus-induced CPE.

different cells = tested on: different cells; set-up: method as in PMID 23658730, doi:10.4236/aim.2016.64027, PMID 20603153; details: ref [19], [60], [61]; cited from earlier work
FIPV-infected cells = experiment: Feline-specific magnetic bead-based multiplex immunoassay; type: cell-based; details: 20 μM
Protocol: The culture supernatant was centrifuged and used for the bead-based multiplex immunoassay, while the attached cells were trypsinised and collected for the cellular proinflammatory cytokine mRNA expression study.
Nineteen immune-related proteins including cytokines, chemokines, growth factors, and other immunologically active proteins were measured using a commercially available feline-specific magnetic bead-based multiplex immunoassay. The Feline Cytokine/Chemokine Magnetic Bead Panel Premixed (FCYTOMAG-20K-PMX; EMD Millipore, Billerica, MA, USA) was purchased and used according to the manufacturer's recommendation. Quality control samples, standards, and sets of culture sample were run on plates in duplicate. Prior to measurement, the culture samples were concentrated using Concentrator 5301 (Eppendorf, Hamburg, Germany). The plates were evaluated using MAGPIX® (Luminex, Austin, TX, USA); subsequently, the results were analysed using MILLIPLEX Analyst v.5.1 (EMD Millipore, Billerica, MA, USA).

[1] = Pharmacokinetics study in healthy cats (plasma curcumin by HPLC); type: in vivo; details: for Curcumin content in plasma: any interval, not detected, below detection limit of HPLC; for Tmax / Cmax / AUC(0-t): po, 250 mg/kg; for Cmax: plasma curcumin
Protocol: Single-dosing (s.i.d.) and two-dosing (b.i.d.) oral administration of curcumin and Cur-CS nanoparticle pharmacokinetics study spanning 24 h was performed in the cats, which weighed 1.5–3.5 kg. The cats were randomly divided into four groups, and each group contained four cats. […] Prior to and 0.5, 1, 2, 3, 4, 8, 12, and 24 h after the treatments, 1 mL blood was harvested via jugular, cephalic, or saphenous venipuncture into lithium heparinized tubes (BD, Franklin Lakes, NJ, USA). The plasma was immediately centrifuged at 500 g for 5 min at 4°C and stored at -80°C until use. The cats then underwent a 2-week washout and rest period prior to testing on the following treatment and series of blood collection. All the cats were neutered at the end of the study and adopted by the public. Curcumin was extracted from plasma using the polar solvent extraction method. Ethyl acetate (500 μL) was added to 200 μL plasma and vortexed for 10 min. The samples were centrifuged at 4000 g at 10°C for 15 min, and the upper ethyl acetate layer was transferred to a new 1.5 mL tube. The extraction was repeated twice and performed under dim light conditions to prevent the degradation of curcumin. […] An aliquot of a 20 μL sample was analysed for quantifying the curcumin in the plasma by HPLC. The curcumin was quantified using a Series 1200 Quaternary HPLC system (Agilent Technologies, Santa Clara, CA, USA) with an UV-Vis detector equipped with an Eclipse Plus C18 column (Agilent Technologies). The HPLC system was first optimised as previously described and further adjusted to suitable settings. […] The flow rate of the mobile phase was maintained at 1 mL/min with an injection volume of 20 μL sample, where the column temperature was maintained at 35°C. The detector signal of the HPLC system for curcumin detection was adjusted to 425 nm. A 6-point calibration curve was prepared by serial dilution of 1 mg/mL curcumin stock solution in methanol. Curcumin concentrations (ng/mL) in the plasma were calculated based on the calibration curve. Time to reach maximum plasma concentration (Tmax) and maximum plasma concentration (Cmax) values were obtained directly from the measured data. The area under the curve from 0 to t (AUC0-t) was calculated using the linear-log trapezoidal method.

[2] = plasma, oral 250 mg/kg, single dosing (s.i.d.)

Curcumin content in plasma ([1]; 50 mg/kg): < 25 ng/mL
Curcumin content in plasma ([1]; 100 mg/kg): < 25 ng/mL
Tmax ([1]; cat, plasma, oral 250 mg/kg, b.i.d. study, as stated in the text (similar to s.i.d. profile)): 2 to 4 h
AUC0-12 as share of AUC0-∞ ([1]; oral 250 mg/kg): more than 80%
AUC(0-inf) [1, 2]: 1370 ± 112 ng·h/mL
Tmax [1, 2]: 3 h
Cmax [1, 2]: 220 ± 18.6 ng/mL
AUC(0-t) ([1]; plasma, oral 250 mg/kg, single dosing (s.i.d.), read-out: AUC0-12): 1140 ± 137 ng·h/mL
Cmax ([1]; plasma, oral 250 mg/kg, two dosing (b.i.d.) 12 h apart): 241 ± 27.1 ng/mL
Tmax ([1]; plasma, oral 250 mg/kg, two dosing (b.i.d.), after the second dose): 4 h
AUC(0-t) ([1]; plasma, oral 250 mg/kg, two dosing (b.i.d.), read-out: AUC0-12): 1510 ± 72.4 ng·h/mL
AUC(0-t) ([1]; plasma, oral 250 mg/kg, two dosing (b.i.d.), read-out: AUC0-24): 3100 ± 176 ng·h/mL
SMILES: COc1cc(/C=C/C(=O)CC(=O)/C=C/c2ccc(O)c(OC)c2)ccc1O [Curcumin]
Cellular uptake: time at which green fluorescence was first observed (CrFK cells): 3 h
SI (FIPV strain WSU 79-1146; 48 h, CC50/EC50): 3.72
EC50 (FIPV strain WSU 79-1146; Alphacoronavirus 1, 48 h, 50% protection against virus-induced CPE, 100 TCID50 FIPV in CrFK cells): 15.9 µM
Percentage of protection (FIPV strain WSU 79-1146; cotreatment, 48 h, 5 μM): 21.98 ± 7.01^b %
Percentage of protection (FIPV strain WSU 79-1146; cotreatment, 48 h, 10 μM): 40.08 ± 3.71^d %
Percentage of protection (FIPV strain WSU 79-1146; cotreatment, 48 h, 20 μM): 55.95 ± 1.82^e %
Percentage of protection (FIPV strain WSU 79-1146; cotreatment, 48 h, 20 μM, listed as curcumin): 56%
Percentage of protection (FIPV strain WSU 79-1146; cotreatment, 72 h, 5 μM): 11.99 ± 3.43^b %
Percentage of protection (FIPV strain WSU 79-1146; cotreatment, 72 h, 10 μM): 18.82 ± 1.93^c %
Percentage of protection (FIPV strain WSU 79-1146; cotreatment, 72 h, 20 μM): 22.25 ± 2.05^c %
Percentage of protection (FIPV strain WSU 79-1146; posttreatment, 48 h, 5 μM): 0.08 ± 0.13^a %
Percentage of protection (FIPV strain WSU 79-1146; posttreatment, 48 h, 10 μM): 13.31 ± 3.93^b %
Percentage of protection (FIPV strain WSU 79-1146; posttreatment, 48 h, 20 μM): 17.28 ± 0.78^bc %
Percentage of protection (FIPV strain WSU 79-1146; posttreatment, 72 h, 5 μM): 0.99 ± 1.71^a %
Percentage of protection (FIPV strain WSU 79-1146; posttreatment, 72 h, 10 μM): 2.59 ± 1.55^a %
Percentage of protection (FIPV strain WSU 79-1146; posttreatment, 72 h, 20 μM): 2.13 ± 1.91^a %
Percentage of protection (FIPV strain WSU 79-1146; pretreatment, 48 h, 5 μM): 0.38 ± 0.66^a %
Percentage of protection (FIPV strain WSU 79-1146; pretreatment, 48 h, 10 μM): 3.87 ± 1.64^ab %
Percentage of protection (FIPV strain WSU 79-1146; pretreatment, 48 h, 20 μM): 12.79 ± 2.27^c %
Percentage of protection (FIPV strain WSU 79-1146; pretreatment, 72 h, 5 μM): 1.74 ± 1.06^ab %
Percentage of protection (FIPV strain WSU 79-1146; pretreatment, 72 h, 10 μM): 1.16 ± 1.82^a %
Percentage of protection (FIPV strain WSU 79-1146; pretreatment, 72 h, 20 μM): 5.12 ± 2.03^bc %
Exposure up to which no cytotoxic effect was observed (different cells): 30 µM
TNFα concentration (FIPV-infected cells; 24 h, infected cells untreated 38.13 ± 0.00): 37.40 ± 1.04^b pg/mL
IL-18 concentration (FIPV-infected cells; 24 h, infected cells untreated 60.62 ± 3.50): 47.92 ± 1.73^ab pg/mL
KC concentration (FIPV-infected cells; 24 h, infected cells untreated 80.76 ± 3.71): 58.52 ± 15.92^bc pg/mL
SDF-1 concentration (FIPV-infected cells; 24 h, infected cells untreated 161.3 ± 7.1): 163.5 ± 3.1^b pg/mL
PDGF-BB concentration (FIPV-infected cells; 24 h, infected cells untreated 445.6 ± 18.7): 446.0 ± 0.0^b pg/mL
RANTES concentration (FIPV-infected cells; 24 h, infected cells untreated 868.6 ± 62.1): 746.7 ± 18.3^c pg/mL
MCP-1 concentration (FIPV-infected cells; 24 h, infected cells untreated 934.8 ± 0.0): 934.8 ± 0.0^c pg/mL
IL-8 concentration (FIPV-infected cells; 24 h, infected cells untreated 2078.0 ± 138.6): 1509.5 ± 16.3^c pg/mL
TNFα concentration (FIPV-infected cells; 48 h, infected cells untreated 46.83 ± 6.11): 35.18 ± 2.09^a pg/mL
IL-6 concentration (FIPV-infected cells; 48 h, infected cells untreated 108.06 ± 4.85): 54.75 ± 6.34^∗ pg/mL
SDF-1 concentration (FIPV-infected cells; 48 h, infected cells untreated 158.2 ± 0.9): 84.2 ± 2.9^a pg/mL
KC concentration (FIPV-infected cells; 48 h, infected cells untreated 266.1 ± 35.2): 186.4 ± 14.2^c pg/mL
PDGF-BB concentration (FIPV-infected cells; 48 h, infected cells untreated 440.5 ± 43.1): 354.2 ± 30.0^a pg/mL
MCP-1 concentration (FIPV-infected cells; 48 h, infected cells untreated 934.2 ± 57.9): 735.5 ± 34.2^a pg/mL
IL-8 concentration (FIPV-infected cells; 48 h, infected cells untreated 1660.0 ± 196.6): 1074.5 ± 9.2^b pg/mL
RANTES concentration (FIPV-infected cells; 48 h, infected cells untreated 2317.0 ± 355.0): 618.6 ± 70.8^b pg/mL

Reference: paper PMC7262662 (BioMed Research International, 2020)
